Data reported in patent US4680389A, “Temperature stable crystalline di(1-methyl-2-pyrralidinone) and di(N-formylpyrrolidine) adducts of cephalosporin derivatives” (priority 1986, dated 1987).

Tests used:
Rat = test: Toxicity data (LD50) in rat; type: in vivo; settings: route not stated
Method: (§1) Toxicity data (LD50) was determined for the following compounds which are utilized in the instant invention or prepared according to the instant invention.

[1] = Stabilities at elevated temperatures (percent potency loss by HPLC, dry containers); type: physicochemical
Method: Elevated temperature stabilities were determined by storing the preparations in dry containers (1 dram screw cap vials) at temperatures and for time periods as denoted below. Potency losses or gains were determined by HPLC. […] Each compound form tested was prepared in accordance with the example which is designated.

[2] = HPLC stability of Example 1 di(1-methyl-2-pyrrolidinone) adduct at 70° C.; type: physicochemical
Method: 1.0 g of the sulfuric acid addition salt of the zwitterion is vigorously slurried in 10 ml of 1-methyl-2-pyrrolidinone (NMP-2) at 25° C.-45° C. The crystalline mass is mixed with 0.49 ml (2.02 molar equivalents) of triethylamine (TEA) over a period of 0.5 to 1.5 hours. The mixture is seeded with 1-methyl-2-pyrrolidinone adduct and vigorously stirred for 6 to 24 hours. The crystals are then separated by vacuum filtration, washed with two 3 ml portions of 1-methyl-2-pyrrolidinone, two 5 ml portions of ether and vacuum dried at 45° to 55° C. for 2 hours.

[3] = Stability in aqueous solution; type: physicochemical; settings: 250 mg/ml aqueous solution, ambient pH 4 to 5, at least six hours at 25° C.; 360 min
Description: These crystalline adducts display acceptable stability when they are placed in solution.

[4] = Toxicity data (LD50) in rat; type: in vivo; settings: in vivo, route not stated
Method: as §1

[5] = elevated temperatures (e.g. 45° C. and above), one week, dry powder; 10080 min; cited from earlier work
various organisms = settings: cited from earlier work

CN1CCCC1=O.CN1CCCC1=O.CO/N=C(\C(=O)NC1C(=O)N2C(C(=O)[O-])=C(C[N+]3(C)CCCC3)CSC12)c1csc(N)n1 (centres unmarked) [Di(1-methyl-2-pyrrolidinone) adduct, di(1-methyl-2-pyrrolidinone) adduct of 7-[(Z)-2-methoxyimino-2-(2-aminothiazol-4-yl)acetamido-]3-[(1-methyl-1-pyrrolidinium)methyl]-3-cephem-4-carboxylate]
Rat LD50 (Rat): 663 mg/kg
PERCENT LOSS ([1]; 37° C., 3 months, 129600 min): 1.2%
PERCENT LOSS ([1]; 45° C., 4 weeks, 40320 min): 1.6%
PERCENT LOSS ([1]; 45° C., 6 weeks, 60480 min): 3.0%
PERCENT LOSS ([1]; 45° C., 8 weeks, 80640 min): 0-3%
PERCENT LOSS ([1]; 56° C., 1 week, 10080 min): 2.1%
PERCENT LOSS ([1]; 56° C., 2 weeks, 20160 min): 3.4%
PERCENT LOSS ([1]; 56° C., 4 weeks, 40320 min): 4.2%
PERCENT LOSS ([1]; 56° C., 6 weeks, 60480 min): 7.0%
PERCENT LOSS ([1]; 56° C., 8 weeks, 80640 min): 0.9%
PERCENT LOSS ([1]; 70° C., 1 day): 0%
PERCENT LOSS ([1]; 70° C., 2 days): 2.1%
PERCENT LOSS ([1]; 70° C., 3 days): 2.1%
PERCENT LOSS ([1]; 70° C., 5 days): 2.1%
PERCENT LOSS ([1]; 100° C., 1 day): 13-16%
HPLC Stability % Loss ([2]; 1 Day): 0-2.3%
HPLC Stability % Loss ([2]; 3 Days): 5-6.5%
potency loss in aqueous solution [3]: less than 10%

CO/N=C(\C(=O)NC1C(=O)N2C(C(=O)[O-])=C(C[N+]3(C)CCCC3)CSC12)c1csc(N)n1 (centres unmarked) [Zwitterion, 7-[(Z)-2-methoxyimino-2-(2-aminothiazol-4-yl)acetamido]-3-[(1-methyl-1-pyrrolidinium)methyl]-3-cephem-4-carboxylate]
LD50 [4]: 665 mg/kg
loss of activity on storage [5]: ≥ 30%
utility against various organisms (various organisms; data in U.S. Pat. No. 4,406,899): broad spectrum utility against various organisms
spectrum of activity compared with ceftazidime and cefotaxime (various organisms; zwitterion form vs ceftazidime and cefotaxime): broader spectrum activity than ceftazidime and cefotaxime

O=CN1CCCC1 [N--Formyl pyrrolidine, N-formyl pyrrolidine]
Rat LD50 (Rat): < 1000 mg/kg
LD50 [4]: > 500 mg/kg

CO/N=C(\C(=O)NC1C(=O)N2C(C(=O)[O-])=C(C[N+]3(C)CCCC3)CSC12)c1csc(N)n1 (centres unmarked) [Zwitterion (Crystalline), 7-[(Z)-2-methoxyimino-2-(2-aminothiazol-4-yl)acetamido]-3-[(1-methyl-1-pyrrolidinium)methyl]-3-cephem-4-carboxylate]
temperature stability of crystalline vs amorphous form [1]: more temperature stable than the amorphous form
PERCENT LOSS ([1]; 37° C., 1 month, 43200 min): 20.0%
PERCENT LOSS ([1]; 45° C., 1 week, 10080 min): 14.2%
PERCENT LOSS ([1]; 56° C., 1 week, 10080 min): 25.6%
PERCENT LOSS ([1]; 56° C., 2 weeks, 20160 min): 30.0%
PERCENT LOSS ([1]; 70° C., 2 days, 2880 min): 13.5%
PERCENT LOSS ([1]; 70° C., 3 days, 4320 min): 20.5%
degraded at 336 h ([1]; dry solid, 45° C., 2 weeks): 23%

CN1CCCC1=O [1-Methyl-2-pyrrolidinone, 1-methyl-2-pyrrolidinone]
Rat LD50 (Rat): < 2500 mg/kg
LD50 [4]: > 2000 mg/kg

CO/N=C(\C(=O)NC1C(=O)N2C(C(=O)[O-])=C(C[N+]3(C)CCCC3)CSC12)c1csc(N)n1 (centres unmarked)
Rat LD50 (Rat; listed as Di(N--formyl pyrrolidine) adduct): 495 mg/kg
PERCENT LOSS ([1]; 37° C., 1 month, 43200 min, listed as Di(NFP) Adduct): 0%
PERCENT LOSS ([1]; 45° C., 1 week, 10080 min, listed as Di(NFP) Adduct): 0-3%
PERCENT LOSS ([1]; 45° C., 4 weeks, 40320 min, listed as Di(NFP) Adduct): 3.5-5.9%
PERCENT LOSS ([1]; 56° C., 1 week, 10080 min, listed as Di(NFP) Adduct): 7.1%
PERCENT LOSS ([1]; 56° C., 2 weeks, 20160 min, listed as Di(NFP) Adduct): 9.3%
PERCENT LOSS ([1]; 70° C., 1 day, listed as Di(NFP) Adduct, 1440 min): 1.5%
PERCENT LOSS ([1]; 70° C., 3 days, listed as Di(NFP) Adduct, 4320 min): 0-4.4%
degraded at 672 h ([1]; dry solid, 56° C., 4 weeks): 18.1%

CO/N=C(\C(=O)NC1C(=O)N2C(C(=O)[O-])=C(C[N+]3(C)CCCC3)CSC12)c1csc(N)n1 (centres unmarked) [Zwitterion (Amorphous), 7-[(Z)-2-methoxyimino-2-(2-aminothiazol-4-yl)acetamido]-3-[(1-methyl-1-pyrrolidinium)methyl]-3-cephem-4-carboxylate, reference compound]
PERCENT LOSS ([1]; 45° C., 1 week, 10080 min): 34.1%
PERCENT LOSS ([1]; 45° C., 4 weeks, 40320 min): 71%
PERCENT LOSS ([1]; 56° C., 1 week, 10080 min): 49.6%
PERCENT LOSS ([1]; 70° C., 1 day, 1440 min): 34.5%
PERCENT LOSS ([1]; 70° C., 2 days, 2880 min): 46.2%
PERCENT LOSS ([1]; 70° C., 3 days, 4320 min): 55.2%
degraded at 24 h ([1]; dry solid, 100° C., 1 day): 100%
